Experimental data as given in PMC9505254 (Pathogens, 2022).
“Also recorded” adds a separate entry of the source.

What was measured:
[1] = system: type-A human erythrocytes
[2] = system: type-B human erythrocytes
[3] = system: type-O human erythrocytes
[4] = system: S. aureus (ATCC 25923) biofilm; assay: Inhibition of biofilm formation (crystal violet); format: cell-based; conditions: Staphylococcus aureus, ATCC25923, alone at 0.2 µg mL−1, 48 h, 37 °C, A600, triplicate
Experimental: The assay was made in flat-bottom 96-well polystyrene microplates as described by Bezerra et al.. The cell suspension was prepared using a single colony of S. aureus from a Petri dish with Mueller–Hinton broth (stock bacteria). The colony was transferred to Mueller–Hinton broth and incubated at 37 ℃ for 24 h. After, the cell suspension was standardized to a concentration of 10^6 cells mL^−1. […] The combination of peptide and antibiotic was made from the highest concentration of the peptide combined with the lowest antibiotic concentration and vice versa. After the incubation period, the supernatant was removed carefully from each well and washed one time with sterile NaCl 0.15 M solution. […] The absorbances were obtained via a microplate reader (BioTek^TM Epoch, BioTek Instruments, Inc., Winooski, VT, USA) at 600 nm. The experiment was repeated three times.

[5] = system: S. aureus (ATCC 25923) preformed biofilm; assay: Reduction of preformed biofilm mass (crystal violet); format: cell-based, Staphylococcus aureus
Experimental: After the incubation period, the supernatant was removed carefully from each well and washed one time with sterile NaCl 0.15 M solution. […] The absorbances were obtained via a microplate reader (BioTek^TM Epoch, BioTek Instruments, Inc., Winooski, VT, USA) at 600 nm. The experiment was repeated three times. The assay to observe the preformed biofilm reduction was conducted the same as described above but with some adjustments. […] The microplates were incubated in the dark, at 37 ℃, for 24 h. After incubation, the biofilm was washed, dried, and stained, and absorbance was taken as above.

S. aureus biofilm cells = assay: ROS overproduction (DCFH-DA, fluorescence microscopy); conditions: ciprofloxacin alone at 6.2, 0.2, 25 or 0.02 µg mL−1 (Figures 4 and 5)
Experimental: The ROS overproduction was determined following the method described by Bezerra et al. [13]. The assays were conducted as the same for PI analysis. Then, 20 μL of 2',7' […] diacetate (DCFH-DA, Sigma, St. Louis, MI, USA) was added and incubated in the dark for 30 min at 24 °C. Finally, the biofilms were washed with 0.15 M NaCl and observed under a fluorescence microscope (Olympus System BX 41, Tokyo, Japan) with an excitation wavelength of 488 nm and an emission wavelength of 525 nm.

Compound | % Hemolysis Type-A Blood [1] [%] | % Hemolysis Type-B Blood [2] [%] | % Hemolysis Type-O Blood [3] [%] | inhibition at 0.2 µg/mL [4] [%] | reduction of preformed biofilm ([5]; alone at 6.2 µg mL−1, 24 h biofilm, 24 h treatment, 37 °C, crystal violet, A600) [%] | reduction of preformed biofilm ([5]; alone at 25 µg mL−1) [%] | reduction of the biomass of preformed biofilm ([5]; ciprofloxacin alone at the Figure 1D concentrations (0.02, 0.39, 0.78, 6.2 µg mL−1)) | reduction of the biomass of preformed biofilm ([5]; each alone at the concentrations of the two Figure 1C combinations (RcAlb-PepI 0.04 and 0.2; ciprofloxacin 25 and 6.2 µg mL−1)) | ROS overproduction (S. aureus biofilm cells)
Triton X-100 | 100 ± 0.001 | 100 ± 0.001 | 100 ± 0.005 |  |  |  |  |  | 
O=C(O)c1cn(C2CC2)c2cc(N3CCNCC3)c(F)cc2c1=O [Ciprofloxacin] |  |  |  | 10 | 0 | 8 | not effective | not effective | did not induce ROS; also recorded: not able to induce ROS accumulation
